Molecular target: T1, IFNγ receptor subunit 1 (IFNγR1) (Mus musculus, UniProt P15261)
T1 construct: gene Ifngr1; synthetic Wt IFNγR1 peptide, CRAC motif, residues 269 to 280 ([…])
Assay: SPR (BIAcore […], L1 chip) of peptide over immobilized phosphatidylcholine/cholesterol liposomes
Format: binding

How did the Kd turn out when CC(C)CCC[C@@H](C)[C@H]1CC[C@H]2[C@@H]3CC=C4C[C@@H](O)CC[C@]4(C)[C@H]3CC[C@]12C [cholesterol] was run?
Its Kd is 4.27 nM.
